Tests used:
[1] = test system: [Candida] auris; experiment: Antifungal activity against multidrug-resistant Candida auris 387 assessed as inhibition in fungal growth incubated for 48 hrs by microplate reader analysis; format: functional; details: Candidozyma auris
[2] = test system: Candida parapsilosis; experiment: Antifungal activity against Candida parapsilosis 23 assessed as inhibition in fungal growth incubated for 48 hrs by microplate reader analysis; format: functional; details: Lodderomyces parapsilosis
[3] = test system: [Candida] auris; experiment: Antifungal activity against multidrug-resistant Candida auris 381 assessed as inhibition in fungal growth incubated for 48 hrs in presence of 0% serum by microplate reader analysis; format: functional; details: Candidozyma auris
[4] = test system: Candida albicans; experiment: Antifungal activity against Candida albicans 3 assessed as inhibition in fungal growth incubated for 48 hrs by microplate reader analysis; format: functional
[5] = test system: Aspergillus fumigatus; experiment: Antifungal activity against Aspergillus fumigatus NRRL6113 assessed as reduction in fungal viability incubated for 48 hrs by microplate reader analysis; format: functional
[6] = test system: [Candida] auris; experiment: Antifungal activity against multidrug-resistant Candida auris 381 assessed as inhibition in fungal growth incubated for 48 hrs by microplate reader analysis; format: functional; details: Candidozyma auris
[7] = test system: Aspergillus fumigatus; experiment: Antifungal activity against Aspergillus fumigatus ATCC MYA-3627 assessed as inhibition in fungal growth incubated for 48 hrs in presence of 5% serum by microplate reader analysis; format: functional
[8] = test system: Aspergillus fumigatus; experiment: Antifungal activity against Aspergillus fumigatus MYA 3627 assessed as reduction in fungal viability incubated for 48 hrs by microplate reader analysis; format: functional
[9] = test system: Paecilomyces lilacinus; experiment: Antifungal activity against Paecilomyces lilacinus 165E10 assessed as reduction in fungal viability incubated for 48 hrs by microplate reader analysis; format: functional, Purpureocillium lilacinum
[10] = test system: Aspergillus flavus; experiment: Antifungal activity against Aspergillus flavus NRRL485 assessed as reduction in fungal growth incubated for 48 hrs by microplate reader analysis; format: functional
[11] = test system: Cryptococcus neoformans; experiment: Antifungal activity against Cryptococcus neoformans H99 assessed as inhibition in fungal growth incubated for 48 hrs in presence of 5% serum by microplate reader analysis; format: functional
[12] = test system: Aspergillus fumigatus; experiment: Antifungal activity against Aspergillus fumigatus MYA 3627 assessed as reduction in fungal growth incubated for 48 hrs by microplate reader analysis; format: functional
[13] = test system: Candida albicans; experiment: Antifungal activity against Candida albicans 5 assessed as inhibition in fungal growth incubated for 48 hrs by microplate reader analysis; format: functional
[14] = test system: Pichia kudriavzevii; experiment: Antifungal activity against Candida krusei ATCC 6258 (Y-7179) assessed as reduction in fungal growth incubated for 48 hrs by microplate reader analysis; format: functional
[15] = test system: Aspergillus fumigatus; experiment: Antifungal activity against Aspergillus fumigatus NRRL5109 assessed as reduction in fungal growth incubated for 48 hrs by microplate reader analysis; format: functional
[16] = test system: Kodamaea ohmeri; experiment: Antifungal activity against multidrug-resistant Kodamaea ohmeri 396 assessed as inhibition in fungal growth incubated for 48 hrs by microplate reader analysis; format: functional
[17] = test system: Saccharomyces cerevisiae; experiment: Antifungal activity against multidrug-resistant Saccharomyces cerevisiae 400 assessed as inhibition in fungal growth incubated for 48 hrs by microplate reader analysis; format: functional
[18] = test system: Candida albicans; experiment: Antifungal activity against Candida albicans 24 assessed as inhibition in fungal growth incubated for 48 hrs by microplate reader analysis; format: functional
[19] = test system: Mucor circinelloides; experiment: Antifungal activity against Mucor circinelloides 235C7 assessed as reduction in fungal viability incubated for 48 hrs by microplate reader analysis; format: functional
[20] = test system: Saccharomyces cerevisiae; experiment: Antifungal activity against multidrug-resistant Saccharomyces cerevisiae 399 assessed as inhibition in fungal growth incubated for 48 hrs by microplate reader analysis; format: functional
[21] = test system: Clavispora lusitaniae; experiment: Antifungal activity against multidrug-resistant Candida lusitaniae 398 assessed as inhibition in fungal growth incubated for 48 hrs by microplate reader analysis; format: functional
[22] = test system: Cryptococcus neoformans; experiment: Antifungal activity against Cryptococcus neoformans H99 assessed as inhibition in fungal growth incubated for 48 hrs in presence of 0% serum by microplate reader analysis; format: functional
[23] = test system: [Candida] auris; experiment: Antifungal activity against multidrug-resistant Candida auris 383 assessed as inhibition in fungal growth incubated for 48 hrs by microplate reader analysis; format: functional; details: Candidozyma auris
[24] = test system: [Candida] auris; experiment: Antifungal activity against multidrug-resistant Candida auris 384 assessed as inhibition in fungal growth incubated for 48 hrs by microplate reader analysis; format: functional; details: Candidozyma auris
[25] = test system: Aspergillus fumigatus; experiment: Antifungal activity against Aspergillus fumigatus NRRL5109 assessed as reduction in fungal viability incubated for 48 hrs by microplate reader analysis; format: functional
[26] = test system: Aspergillus flavus; experiment: Antifungal activity against Aspergillus flavus NRRL485 assessed as reduction in fungal viability incubated for 48 hrs by microplate reader analysis; format: functional
[27] = test system: Aspergillus terreus; experiment: Antifungal activity against Aspergillus terreus 191A6 assessed as reduction in fungal growth incubated for 48 hrs by microplate reader analysis; format: functional
[28] = test system: Curvularia lunata; experiment: Antifungal activity against Curvularia lunata NRRL6409 assessed as reduction in fungal viability incubated for 48 hrs by microplate reader analysis; format: functional
[29] = test system: [Candida] auris; experiment: Antifungal activity against multidrug-resistant Candida auris 385 assessed as inhibition in fungal growth incubated for 48 hrs by microplate reader analysis; format: functional; details: Candidozyma auris
[30] = test system: Candida parapsilosis; experiment: Antifungal activity against Candida parapsilosis 15 assessed as inhibition in fungal growth incubated for 48 hrs by microplate reader analysis; format: functional; details: Lodderomyces parapsilosis
[31] = test system: Pichia kudriavzevii; experiment: Antifungal activity against Candida krusei 25 assessed as inhibition in fungal growth incubated for 48 hrs by microplate reader analysis; format: functional
[32] = test system: Candida albicans; experiment: Antifungal activity against Candida albicans SC5314 assessed as inhibition in fungal growth incubated for 48 hrs in presence of 5% serum by microplate reader analysis; format: functional
[33] = test system: Cryptococcus neoformans; experiment: Antifungal activity against Cryptococcus neoformans H99 assessed as reduction in fungal viability incubated for 48 hrs by microplate reader analysis; format: functional
[34] = test system: Mucor circinelloides; experiment: Antifungal activity against Mucor circinelloides 235C7 assessed as reduction in fungal growth incubated for 48 hrs by microplate reader analysis; format: functional
[35] = test system: Candida albicans; experiment: Antifungal activity against Candida albicans 1 assessed as inhibition in fungal growth incubated for 48 hrs by microplate reader analysis; format: functional
[36] = test system: Candida tropicalis; experiment: Antifungal activity against Candida tropicalis ATCC750 (Y-12699) assessed as reduction in fungal viability incubated for 48 hrs by microplate reader analysis; format: functional
[37] = test system: Nakaseomyces glabratus; experiment: Antifungal activity against Candida glabrata 2 assessed as inhibition in fungal growth incubated for 48 hrs by microplate reader analysis; format: functional
[38] = test system: Candida parapsilosis; experiment: Antifungal activity against Candida parapsilosis 28 assessed as inhibition in fungal growth incubated for 48 hrs by microplate reader analysis; format: functional; details: Lodderomyces parapsilosis
[39] = test system: Aspergillus terreus; experiment: Antifungal activity against Aspergillus terreus 191A6 assessed as reduction in fungal viability incubated for 48 hrs by microplate reader analysis; format: functional
[40] = test system: Candida albicans; experiment: Antifungal activity against Candida albicans SC5314 assessed as inhibition in fungal growth incubated for 48 hrs in presence of 10% serum by microplate reader analysis; format: functional
[41] = test system: Candida parapsilosis; experiment: Antifungal activity against Candida parapsilosis 18 assessed as inhibition in fungal growth incubated for 48 hrs by microplate reader analysis; format: functional; details: Lodderomyces parapsilosis
[42] = test system: Nakaseomyces glabratus; experiment: Antifungal activity against Candida glabrata 17 assessed as inhibition in fungal growth incubated for 48 hrs by microplate reader analysis; format: functional
[43] = test system: Aspergillus fumigatus; experiment: Antifungal activity against Aspergillus fumigatus ATCC MYA-3627 assessed as inhibition in fungal growth incubated for 48 hrs in presence of 10% serum by microplate reader analysis; format: functional
[44] = test system: Hamigera insecticola; experiment: Antifungal activity against Hamigera insecticola NRRL35442 assessed as reduction in fungal growth incubated for 48 hrs by microplate reader analysis; format: functional

CC[C@H](C)C[C@H](C)C[C@H](C)C[C@@H]1NC(=O)[C@H](C(C)C)N(C)C(=O)[C@@H]([C@H](C)CC)OC(=O)[C@H](C(C)(C)O)N(C)C(=O)[C@H](CC(C)C)NC(=O)[C@H](C(C)C)N(C)C(=O)[C@H]([C@H](C)CC)NC(=O)[C@@H]2CCCN2C(=O)CN(C)C1=O
2.5 µM: MIC80 [1] | MIC80 [2] | MIC80 [4] | MIC80 [6] | MIC80 [7] | MIC80 [12] | MFC [14] | MIC80 [15] | MIC80 [16] | MIC80 [17] | MIC80 [20] | MIC80 [21] | MIC80 [23] | MIC80 [24] | MIC80 [27] | MIC80 [29] | MIC80 [30] | MFC<=99.9 [33] | MIC80 [35] | MFC<=99.9 [36] | MIC80 [38] | MIC80 [43]
0.6 µM: MIC80 [18] | MIC80 [22] | MFC<=99.9 [28] | MIC80 [44]
>10 µM: MFC<=99.9 [9] | MFC<=99.9 [19] | MFC<=99.9 [26] | MFC<=99.9 [39]
0.3 µM: MIC80 [40]
0.2 µM: MIC80 [32] | MIC80 [37] | MIC80 [42]
1.3 µM: MIC80 [3] | MIC80 [10] | MIC80 [13] | MIC80 [14] | MIC80 [31] | MIC80 [41]
> 10 µM: MFC [10] | MFC [27] | MFC [34] | MIC80 [34]
5 µM: MFC<=99.9 [5] | MFC<=99.9 [8] | MFC [12] | MFC [15] | MFC<=99.9 [25] | MFC [44]
< 0.2 µM: MIC80 [11]

C[C@@H]1[C@H](O)[C@@H](C)/C=C/C=C/C=C/C=C/C=C/C=C/C=C/[C@H](O[C@@H]2O[C@H](C)[C@@H](O)[C@H](N)[C@@H]2O)C[C@@H]2O[C@](O)(C[C@@H](O)C[C@@H](O)[C@H](O)CC[C@@H](O)C[C@@H](O)CC(=O)O[C@H]1C)C[C@H](O)[C@H]2C(=O)O [AMPHOTERICIN B]
< 0.2 µM: MIC80 [11] | MIC80 [32] | MIC80 [40]
>10 µM: MFC<=99.9 [9]
0.6 µM: MIC80 [4] | MIC80 [13] | MIC80 [21] | MIC80 [35]
2.5 µM: MIC80 [1] | MIC80 [3] | MFC<=99.9 [8] | MFC [12] | MIC80 [12] | MIC80 [14] | MIC80 [15] | MIC80 [20] | MIC80 [23] | MIC80 [24] | MIC80 [27] | MFC<=99.9 [28] | MIC80 [29] | MIC80 [30] | MFC<=99.9 [33] | MFC<=99.9 [36] | MIC80 [44]
1.3 µM: MIC80 [2] | MIC80 [6] | MIC80 [16] | MIC80 [17] | MIC80 [18] | MFC<=99.9 [19] | MIC80 [22] | MIC80 [31] | MFC [34] | MIC80 [34] | MIC80 [38] | MIC80 [41]
0.3 µM: MIC80 [37] | MIC80 [42]
5 µM: MIC80 [10] | MFC [14] | MFC [15] | MFC<=99.9 [25]
< 0.1 µM: MIC80 [7]
0.2 µM: MIC80 [43]
10 µM: MFC<=99.9 [5] | MFC [10] | MFC<=99.9 [26] | MFC [27] | MFC<=99.9 [39] | MFC [44]
